From patent US20240384268A1, “Oligonucleotides” (Hudson Institute of Medical Research, priority 2021, published 2024)
In the oligonucleotide strings, read from the 5' end, every base follows the letter of its sugar. An asterisk marks phosphorothioate; unmarked linkages are phosphodiester. Other units and linkages are bracketed, terminal groups are in braces. A string of capitals states the bases alone. d = 2'-deoxy (DNA); m = 2'-O-methyl

target: T1, TLR3 (Homo sapiens, UniProt O15455); test: HEK-TLR3 NF-κB-luciferase reporter, poly(I:C) stimulation; format: cell-based; set-up: host or cells: HEK-Blue hTLR3 (HEK293); details: 500 nM ASOs/ODNs, poly(I:C) 1 μg/ml
T1 sequence (O15455 24-904): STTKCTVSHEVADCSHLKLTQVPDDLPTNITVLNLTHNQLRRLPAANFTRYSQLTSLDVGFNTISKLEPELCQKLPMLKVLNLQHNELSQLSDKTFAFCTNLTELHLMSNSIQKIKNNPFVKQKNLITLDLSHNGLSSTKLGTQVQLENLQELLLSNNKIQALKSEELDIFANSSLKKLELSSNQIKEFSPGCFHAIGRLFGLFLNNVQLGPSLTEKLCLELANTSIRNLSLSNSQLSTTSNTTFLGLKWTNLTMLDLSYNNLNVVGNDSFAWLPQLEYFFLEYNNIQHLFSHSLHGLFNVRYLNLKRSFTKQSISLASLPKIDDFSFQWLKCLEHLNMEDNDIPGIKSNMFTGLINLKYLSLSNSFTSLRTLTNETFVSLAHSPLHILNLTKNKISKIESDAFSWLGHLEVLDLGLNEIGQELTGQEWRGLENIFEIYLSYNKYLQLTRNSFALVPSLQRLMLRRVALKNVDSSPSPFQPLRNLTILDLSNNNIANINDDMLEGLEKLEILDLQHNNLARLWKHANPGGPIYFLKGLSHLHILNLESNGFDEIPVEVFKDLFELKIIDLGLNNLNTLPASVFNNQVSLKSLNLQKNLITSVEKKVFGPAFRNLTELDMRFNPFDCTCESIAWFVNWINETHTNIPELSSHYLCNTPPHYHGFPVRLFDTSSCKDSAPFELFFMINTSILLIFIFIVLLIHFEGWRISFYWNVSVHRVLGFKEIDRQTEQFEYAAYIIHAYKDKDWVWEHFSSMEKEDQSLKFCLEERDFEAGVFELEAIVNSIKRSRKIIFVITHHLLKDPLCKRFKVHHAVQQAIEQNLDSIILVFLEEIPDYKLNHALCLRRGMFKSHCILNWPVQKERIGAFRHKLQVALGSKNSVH

Substance | inhibition of polyI:C sensing by TLR3 at 500 nM (in words)
T*T*A* G*G*G* T*T*A* G*G*G* T*T*A* G*G*G* T*T*A* G*G*G [A151, reference compound] | only partially reduced polyL:C-dependent TLR3 activation

same assay, conditions: 3-mers DNA PS 45 min, then 500 ng/ml polyI:C overnight, NF-κB-luciferase normalised to polyI:C only (Ligand 1.000, NT 0.000)

Substance | TLR3 2uM
dA*dA*dA (DNA AAA; listed as DNA, chemistry not fully specified) | 1.065
dA*dA*dC (DNA AAC; listed as DNA, chemistry not fully specified) | 0.861
dA*dA*dG (DNA AAG; listed as DNA, chemistry not fully specified) | 0.825
dA*dC*dA (DNA ACA; listed as RNA, chemistry not fully specified) | 0.832
dA*dG*dA (DNA AGA; listed as DNA, chemistry not fully specified) | 0.849
dA*dG*dC (DNA AGC; listed as DNA, chemistry not fully specified) | 0.854
dC*dA*dA (CAA; listed as DNA, chemistry not fully specified) | 0.909
dC*dA*dC (CAC; listed as RNA, chemistry not fully specified) | 0.796
dC*dC*dA (CCA; listed as DNA, chemistry not fully specified) | 0.763
dC*dC*dC (CCC; listed as DNA, chemistry not fully specified) | 0.811
dC*dC*dG (CCG; listed as DNA, chemistry not fully specified) | 0.867
dC*dG*dA (CGA; listed as DNA, chemistry not fully specified) | 0.823
dG*dC*dC [GCC] | 0.895
dG*dC*dG [GCG] | 0.867

same assay, conditions: 3mer 2'OMe ASO at 2 uM, value relative to Ligand only = 1.000, NT = 0.000

Substance | TLR3 2uM
AAU (antisense mA*mA*mU) | 0.888
ACU (antisense mA*mC*mU) | 1.062
AGU (antisense mA*mG*mU) | 0.829
AUA (antisense mA*mU*mA) | 0.570
AUG (mA*mU*mG) | 0.859
AUU (mA*mU*mU) | 0.809
CAU (mC*mA*mU) | 0.866
CCU (mC*mC*mU) | 0.870
CGU (mC*mG*mU) | 0.833
CUA (mC*mU*mA) | 0.851
CUC (mC*mU*mC) | 0.874
CUG (mC*mU*mG) | 0.870
GCU (mG*mC*mU) | 0.808
GGU (mG*mG*mU) | 0.829
UAA (mU*mA*mA) | 0.790
UAC (mU*mA*mC) | 0.813
UAG (mU*mA*mG) | 0.940
UAU (mU*mA*mU) | 0.915
UCC (mU*mC*mC) | 0.761
UCU (mU*mC*mU) | 0.804
UGC (mU*mG*mC) | 0.903
UGU (mU*mG*mU) | 0.967
UUA (mU*mU*mA) | 1.081
UUC (mU*mU*mC) | 1.023
UUG (listed as RNA, chemistry not fully specified) | 1.030
UUU (mU*mU*mU) | 0.970

Substance | TLR3 2uM
dA*dA*dA (DNA AAA; listed as DNA, chemistry not fully specified) | 1.026
dA*dA*dC (DNA AAC; listed as DNA, chemistry not fully specified) | 0.901
dA*dA*dG (DNA AAG; listed as DNA, chemistry not fully specified) | 0.616
dA*dC*dA (DNA ACA; listed as RNA, chemistry not fully specified) | 1.053
dA*dG*dA (DNA AGA; listed as DNA, chemistry not fully specified) | 0.829
dA*dG*dC (DNA AGC; listed as DNA, chemistry not fully specified) | 1.019
dC*dA*dA (CAA; listed as DNA, chemistry not fully specified) | 0.771
dC*dA*dC (CAC; listed as RNA, chemistry not fully specified) | 0.841
dC*dC*dA (CCA; listed as DNA, chemistry not fully specified) | 0.917
dC*dC*dC (CCC; listed as DNA, chemistry not fully specified) | 0.933
dC*dC*dG (CCG; listed as DNA, chemistry not fully specified) | 0.770
dC*dG*dA (CGA; listed as DNA, chemistry not fully specified) | 0.780
dG*dC*dC [GCC] | 0.884
dG*dC*dG [GCG] | 0.830
mAmUmC (mA*mU*mC) [AUC, 3-mer 2′OMe PS oligo] | 0.768
mCmUmU (antisense mC*mU*mU) [660-3] | 0.846
mGmAmU (mG*mA*mU) [GAU, 3-mer 2′OMe PS oligo] | 0.771
mGmUmA (GUA; all 2'-O-methyl, backbone not given here; further chemistry not fully specified) [shortMut1-3b] | 0.839
mGmUmC (mG*mU*mC) [GUC, 3-mer 2′OMe PS oligo] | 0.752
mGmUmG (mG*mU*mG) [GUG, 3-mer 2′OMe PS oligo] | 0.786
mGmUmU (mG*mU*mU) [GUU, 3-mer 2′OMe PS oligo] | 0.825
mUmCmA (mU*mC*mA) [UCA, 3-mer 2′OMe PS oligo] | 0.765
mUmCmG (antisense mU*mC*mG) [660-3b] | 0.850
mUmGmA (mU*mG*mA) [UGA, 3-mer 2′OMe PS oligo] | 0.806
mUmGmG (mU*mG*mG) [UGG, 3-mer 2′OMe PS oligo] | 0.764

same assay, conditions: 30-50 min before 0.5 μg/ml pIC overnight, read-out: IC50 (polyI:C sensing by TLR3)

Substance | IC50 [nM]
T*T*A* G*G*G* T*T*A* G*G*G* T*T*A* G*G*G* T*T*A* G*G*G [A151, reference compound] | > 750
mG*mC*mG*mG*mU*A*T*C*C*A*T*G*T*C*C*mC*mA*mG*mG*mC (mG*mC*mG*mG*mU*dA*dT*dC*dC*dA*dT*dG*dT*dC*dC*mC*mA*mG*mG*mC; antisense) [C2-Mut1] | 62

target: T2, TLR8 (Homo sapiens, UniProt Q9NR97); test: R848-driven IP-10 production in THP-1 cells (TLR8); format: cell-based; set-up: expressed in transfected cells; details: 3mer 2'OMe ASO at 1 uM; raw values, Ligand only = 355.752, NT = 134.831;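 further: IP-10 by ELISA in supernatant after 7 h R848 stimulation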
T2 sequence (Q9NR97 27-1041): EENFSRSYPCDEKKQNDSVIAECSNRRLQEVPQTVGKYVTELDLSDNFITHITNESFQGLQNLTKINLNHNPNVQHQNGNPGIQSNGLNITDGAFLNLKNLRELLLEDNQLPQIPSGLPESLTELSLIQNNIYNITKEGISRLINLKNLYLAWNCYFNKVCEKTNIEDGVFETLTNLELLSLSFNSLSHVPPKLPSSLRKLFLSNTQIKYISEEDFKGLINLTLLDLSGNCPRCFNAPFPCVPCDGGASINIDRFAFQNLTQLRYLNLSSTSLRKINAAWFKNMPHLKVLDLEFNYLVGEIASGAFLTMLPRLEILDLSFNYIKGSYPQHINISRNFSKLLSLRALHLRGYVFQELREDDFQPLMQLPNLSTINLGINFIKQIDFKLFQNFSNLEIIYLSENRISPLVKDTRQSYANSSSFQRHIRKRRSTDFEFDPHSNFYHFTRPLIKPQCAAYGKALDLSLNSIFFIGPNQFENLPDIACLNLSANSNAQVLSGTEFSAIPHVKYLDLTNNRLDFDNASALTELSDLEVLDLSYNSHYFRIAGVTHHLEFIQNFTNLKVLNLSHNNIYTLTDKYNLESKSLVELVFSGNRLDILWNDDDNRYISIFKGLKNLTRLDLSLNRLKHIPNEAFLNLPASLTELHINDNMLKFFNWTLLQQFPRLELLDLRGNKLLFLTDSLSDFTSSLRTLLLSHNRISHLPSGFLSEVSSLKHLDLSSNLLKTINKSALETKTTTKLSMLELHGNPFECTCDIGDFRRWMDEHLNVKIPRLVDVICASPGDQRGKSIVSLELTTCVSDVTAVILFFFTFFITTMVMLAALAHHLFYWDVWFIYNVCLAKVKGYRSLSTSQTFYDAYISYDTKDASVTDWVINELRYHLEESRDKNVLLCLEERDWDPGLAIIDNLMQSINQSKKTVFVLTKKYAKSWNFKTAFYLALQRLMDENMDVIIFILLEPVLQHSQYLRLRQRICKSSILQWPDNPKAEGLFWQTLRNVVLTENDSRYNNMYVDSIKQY

Substance | TLR8 1 uM
AAU (antisense mA*mA*mU) | 202.802
ACU (antisense mA*mC*mU) | 250.907
AGU (antisense mA*mG*mU) | 270.256
AUA (antisense mA*mU*mA) | 157.293
AUG (mA*mU*mG) | 151.847
AUU (mA*mU*mU) | 274.683
CAU (mC*mA*mU) | 388.191
CCU (mC*mC*mU) | 332.524
CGU (mC*mG*mU) | 346.350
CUA (mC*mU*mA) | 243.564
CUC (mC*mU*mC) | 245.566
CUG (mC*mU*mG) | 264.072
GCU (mG*mC*mU) | 193.279
GGU (mG*mG*mU) | 274.989
UAA (mU*mA*mA) | 224.188
UAC (mU*mA*mC) | 254.486
UAG (mU*mA*mG) | 226.441
UAU (mU*mA*mU) | 213.758
UCC (mU*mC*mC) | 346.575
UCU (mU*mC*mU) | 371.961
UGC (mU*mG*mC) | 278.054
UGU (mU*mG*mU) | 331.923
UUA (mU*mU*mA) | 350.207
UUC (mU*mU*mC) | 213.878
UUG (listed as RNA, chemistry not fully specified) | 347.573
UUU (mU*mU*mU) | 307.213

Substance | TLR8 1 uM
dA*dA*dA (DNA AAA; listed as DNA, chemistry not fully specified) | 225.029
dA*dA*dC (DNA AAC; listed as DNA, chemistry not fully specified) | 218.889
dA*dA*dG (DNA AAG; listed as DNA, chemistry not fully specified) | 179.302
dA*dC*dA (DNA ACA; listed as RNA, chemistry not fully specified) | 262.630
dA*dG*dA (DNA AGA; listed as DNA, chemistry not fully specified) | 214.450
dA*dG*dC (DNA AGC; listed as DNA, chemistry not fully specified) | 267.225
dC*dA*dA (CAA; listed as DNA, chemistry not fully specified) | 373.157
dC*dA*dC (CAC; listed as RNA, chemistry not fully specified) | 344.415
dC*dC*dA (CCA; listed as DNA, chemistry not fully specified) | 181.239
dC*dC*dC (CCC; listed as DNA, chemistry not fully specified) | 181.399
dC*dC*dG (CCG; listed as DNA, chemistry not fully specified) | 437.264
dC*dG*dA (CGA; listed as DNA, chemistry not fully specified) | 504.099
dG*dC*dC [GCC] | 209.536
dG*dC*dG [GCG] | 290.409
mAmUmC (mA*mU*mC) [AUC, 3-mer 2′OMe PS oligo] | 181.793
mCmUmU (antisense mC*mU*mU) [660-3] | 167.148
mGmAmU (mG*mA*mU) [GAU, 3-mer 2′OMe PS oligo] | 147.162
mGmUmA (GUA; all 2'-O-methyl, backbone not given here; further chemistry not fully specified) [shortMut1-3b] | 133.537
mGmUmC (mG*mU*mC) [GUC, 3-mer 2′OMe PS oligo] | 131.948
mGmUmG (mG*mU*mG) [GUG, 3-mer 2′OMe PS oligo] | 158.982
mGmUmU (mG*mU*mU) [GUU, 3-mer 2′OMe PS oligo] | 166.278
mUmCmA (mU*mC*mA) [UCA, 3-mer 2′OMe PS oligo] | 1049.345
mUmCmG (antisense mU*mC*mG) [660-3b] | 746.272
mUmGmA (mU*mG*mA) [UGA, 3-mer 2′OMe PS oligo] | 267.234
mUmGmG (mU*mG*mG) [UGG, 3-mer 2′OMe PS oligo] | 527.575
